How the values were obtained:
hPPARα (LBD) = target: T1, hPPARα (LBD) (Homo sapiens, UniProt Q07869); assay: PPAR activating function, GAL4-hPPARα (LBD) luciferase reporter transfected into CV-1 cells; type: cell-based; details: control GW-590735 10^−6 M = 100%
T1 construct: A receptor expression plasmid (pSG5-GAL4-hPPARα or γ or δ (LBD)); GAL4 (fusion partner); expressed in transfected cells; host or cells: CV-1 cells (ATCC)
T1 sequence (Q07869 239-466 limits assumed): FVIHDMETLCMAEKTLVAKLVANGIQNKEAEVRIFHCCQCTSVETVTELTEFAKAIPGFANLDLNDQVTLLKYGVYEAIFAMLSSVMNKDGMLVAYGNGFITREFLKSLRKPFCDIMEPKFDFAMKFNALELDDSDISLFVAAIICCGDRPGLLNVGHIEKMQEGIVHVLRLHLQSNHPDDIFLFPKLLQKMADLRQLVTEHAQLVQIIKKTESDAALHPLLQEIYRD
Method: (§1) The PPAR activating effect of the compound of the invention was determined by the following method:
(§2) A receptor expression plasmid (pSG5-GAL4-hPPARα or γ or δ (LBD)), a luciferase expression plasmid (MH100×4-TK-Luc), and a β-galactosidase expression plasmid (pCMX-β-GAL) are transfected into CV-1 cells (ATCC) (Kliewer, S. A. et al., (1992) Nature, 358: 771-774). After the gene transfer is conducted by utilizing a lipofection reagent (Lipofectamine 2000, Invitrogen), it is incubated for about 40 hours in the presence of a compound to be tested. The luciferase activity and β-GAL activity are measured on the soluble cells.
(§3) The luciferase activity is calibrated by the β-GAL activity. A relative ligand activity is calculated under the condition that the luciferase activity of the cells treated by GW-590735 for PPARα, Rosiglitazone for PPARγ, or GW-501516 for PPARδ is set to 100% to determine EC50 (see the below-mentioned Examples 14 and 15).
(§4) PPAR activating functions of test compounds (compounds of Examples) were measured in the manner described below.
as §2, with “(pUC8-MH100×4-TK-Luc),” for “(MH100×4-TK-Luc),”, “were” for “are”, “was” for “is”
(§5) The luciferase activity was calibrated by the β-GAL activity. A relative ligand activity was calculated under the condition that the luciferase activity of the cells treated by GW-590735 for PPARα, Rosiglitazone for […], or GW-501516 for PPARδ was set to 100% to determine EC50.
(§6) The tests were conducted in the same manner to Example 14 (1).

hPPARγ (LBD) = target: T2, hPPARγ (LBD) (Homo sapiens, UniProt P37231); assay: PPAR activating function, GAL4-hPPARγ (LBD) luciferase reporter transfected into CV-1 cells; type: cell-based; details: control Rosiglitazone 10^−5 M = 100%
T2 construct: A receptor expression plasmid (pSG5-GAL4-hPPARα or γ or δ (LBD)); GAL4 (fusion partner); expressed in transfected cells; host or cells: CV-1 cells (ATCC)
T2 sequence (P37231 238-503 limits assumed): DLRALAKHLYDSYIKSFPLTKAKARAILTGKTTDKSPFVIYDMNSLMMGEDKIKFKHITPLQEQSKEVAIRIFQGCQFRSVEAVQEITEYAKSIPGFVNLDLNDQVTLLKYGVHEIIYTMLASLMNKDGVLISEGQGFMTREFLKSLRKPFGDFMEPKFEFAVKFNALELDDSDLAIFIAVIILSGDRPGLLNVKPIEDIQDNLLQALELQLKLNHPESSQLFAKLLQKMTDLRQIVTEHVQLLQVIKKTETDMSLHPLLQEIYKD
Method: as §1, §2, §3, §4
as §2, with “(pUC8-MH100×4-TK-Luc),” for “(MH100×4-TK-Luc),”, “were” for “are”, “was” for “is”
as §5, §6

hPPARδ (LBD) = target: T3, hPPARδ (LBD) (Homo sapiens, UniProt Q03181); assay: PPAR activating function, GAL4-hPPARδ (LBD) luciferase reporter transfected into CV-1 cells; type: cell-based
T3 construct: A receptor expression plasmid (pSG5-GAL4-hPPARα or γ or δ (LBD)); GAL4 (fusion partner); expressed in transfected cells; host or cells: CV-1 cells (ATCC)
T3 sequence (Q03181 211-439 limits assumed): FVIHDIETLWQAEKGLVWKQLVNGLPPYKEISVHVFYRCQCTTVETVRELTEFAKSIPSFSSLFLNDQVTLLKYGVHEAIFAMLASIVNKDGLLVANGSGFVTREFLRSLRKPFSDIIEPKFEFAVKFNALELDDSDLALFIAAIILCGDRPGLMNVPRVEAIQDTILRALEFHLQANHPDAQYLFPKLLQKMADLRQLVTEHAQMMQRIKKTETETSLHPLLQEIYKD
Method: as §1, §2, §3, §4
as §2, with “(pUC8-MH100×4-TK-Luc),” for “(MH100×4-TK-Luc),”, “were” for “are”, “was” for “is”
as §5, §6

[1] = 10^−6 M of the test compound (Examples 3 and 8)
[2] = 10^−7M of the test compound, control GW-501516 10^−7 M = 100%, CV-1 cells

Compound: CCCCCCc1nc(-c2ccc(C)cc2)sc1CCC(=O)c1ccc(CCC(=O)O)c(C)c1 [Example 1, 3-[4-[3-[4-Hexyl-2-(4-methylphenyl)thiazol-5-yl]propionyl]-2-methylphenyl]propionic acid]
- PPAR activity PPARα (relative value, control = 100%) (hPPARα (LBD); 10^−7 M of the test compound): Inactive
- PPAR activity PPARγ (relative value, control = 100%) (hPPARγ (LBD); 10^−7 M of the test compound): Inactive

Compound: Cc1cc(C(=O)CCc2sc(-c3ccc(C(F)(F)F)cc3)cc2C(C)C)ccc1CCC(=O)O [Example 2, 3-[4-[3-[3-Isopropyl-5-[4-(trifluoromethyl)phenyl]thiophen-2-yl]propionyl]-2-methylphenyl]propionic acid]
- PPAR activity PPARα (relative value, control = 100%) (hPPARα (LBD); 10^−7 M of the test compound): Inactive
- PPAR activity PPARγ (relative value, control = 100%) (hPPARγ (LBD); 10^−7 M of the test compound): Inactive

Compound: Cc1cc(C(=O)CCc2nc(-c3ccccc3)oc2C(C)C)ccc1CCC(=O)O [Example 3, 3-[4-[3-(5-Isopropyl-2-phenyl-4-oxazolyl)propionyl]-2-methylphenyl]propionic acid]
- PPAR activity PPARα (relative value, control = 100%) (hPPARα (LBD); [1]): Inactive
- PPAR activity PPARγ (relative value, control = 100%) (hPPARγ (LBD); [1]): Inactive

Compound: Cc1cc(C(=O)C=Cc2sc(-c3ccc(C(F)(F)F)cc3)nc2C(C)C)ccc1C=CC(=O)O [Example 4, 3-[4-[3-[4-Isopropyl-2-[4-(trifluoromethyl)phenyl]thiazol-5-yl-]propenoyl]-2-methylphenyl]acrylic acid]
- PPAR activity PPARα (relative value, control = 100%) (hPPARα (LBD); 10^−7 M of the test compound): Inactive
- PPAR activity PPARγ (relative value, control = 100%) (hPPARγ (LBD); 10^−7 M of the test compound): Inactive
- PPAR activity PPARδ (relative value, control = 100%) (hPPARδ (LBD); [2]): 22%

Compound: Cc1cc(C(=O)CCc2sc(-c3ccc(C(F)(F)F)cc3)nc2C(C)C)ccc1CCC(=O)O [Example 5, 3-[4-[3-[4-Isopropyl-2-[4-(trifluoromethyl)phenyl]thiazol-5-yl]propionyl]-2-methylphenyl]propionic acid]
- PPAR activity PPARα (relative value, control = 100%) (hPPARα (LBD); 10^−7 M of the test compound): Inactive
- PPAR activity PPARγ (relative value, control = 100%) (hPPARγ (LBD); 10^−7 M of the test compound): Inactive
- agonist function for PPARδ (in words) (hPPARδ (LBD); summary of Tables 38 and 39): particularly strong agonist function

Compound: C=C(CCc1sc(-c2ccc(C(F)(F)F)cc2)nc1C(C)C)c1ccc(CCC(=O)O)c(C)c1 [Example 6, 3-[4-[1-[2-[4-Isopropyl-2-[4-(trifluoromethyl)phenyl]thiazol-5-yl]ethyl]vinyl]-2-methylphenyl]propionic acid]
- PPAR activity PPARα (relative value, control = 100%) (hPPARα (LBD); 10^−7 M of the test compound): Inactive
- PPAR activity PPARγ (relative value, control = 100%) (hPPARγ (LBD); 10^−7 M of the test compound): Inactive

Compound: CC(C)c1nc(-c2ccc(C(F)(F)F)cc2)sc1CCC(=O)c1ccc(N(C)CC(=O)O)cc1 [Example 7, N-[4-[3-[4-Isopropyl-2-[4-(trifluoromethyl)phenyl]thiazol-5-yl]propionyl]phenyl]-N-methylglycine]
- PPAR activity PPARα (relative value, control = 100%) (hPPARα (LBD); 10^−7 M of the test compound): Inactive
- PPAR activity PPARγ (relative value, control = 100%) (hPPARγ (LBD); 10^−7 M of the test compound): Inactive

Compound: CC(C)c1nc(-c2ccc(C(F)(F)F)cc2)sc1CCC(=O)c1ccc(NCC(=O)O)cc1 [Example 8, N-[4-[3-[4-Isopropyl-2-[4-(trifluoromethyl)phenyl]thiazol-5-yl]propionyl]phenyl]glycine]
- PPAR activity PPARα (relative value, control = 100%) (hPPARα (LBD); [1]): Inactive
- PPAR activity PPARγ (relative value, control = 100%) (hPPARγ (LBD); [1]): Inactive

Compound: CC(C)c1cc(-c2ccc(C(F)(F)F)cc2)sc1CCC(=O)c1ccc(N(C)CC(=O)O)cc1 [Example 9, N-[4-[3-[3-Isopropyl-5-[4-(trifluoromethyl)phenyl]thiophen-2-yl]propionyl]phenyl]-N-methylglycine]
- PPAR activity PPARα (relative value, control = 100%) (hPPARα (LBD); 10^−7 M of the test compound): Inactive
- PPAR activity PPARγ (relative value, control = 100%) (hPPARγ (LBD); 10^−7 M of the test compound): Inactive

Compound: CC(C)c1oc(-c2ccc(Cl)cc2O)nc1CCC(=O)c1ccc(N(C)CC(=O)O)cc1 [Example 10, N-[4-[3-[2-(4-chloro-2-hydroxyphenyl)-5-isopropyl-4-oxazolyl]propionyl]phenyl]-N-methylglycine]
- PPAR activity PPARα: relative value (control = 100%) (hPPARα (LBD); 10^−7 M of the test compound): Inactive
- PPAR activity PPARγ: relative value (control = 100%) (hPPARγ (LBD); 10^−7 M of the test compound): Inactive
- PPAR activity PPARδ: relative value (control = 100%) (hPPARδ (LBD); [2]): 69%
- melting point: 166 to 168 °C

Compound: CCc1cc(C(=O)CCc2sc(-c3ccc(C(F)(F)F)cc3)nc2C(C)C)ccc1CCC(=O)O [Example 11, 3-[4-[3-[4-Isopropyl-2-[4-(trifluoromethyl)phenyl]-5-thiazolyl]propionyl]-2-ethylphenyl]propionic acid]
- PPAR activity PPARα: relative value (control = 100%) (hPPARα (LBD); 10^−7 M of the test compound): Inactive
- PPAR activity PPARγ: relative value (control = 100%) (hPPARγ (LBD); 10^−7 M of the test compound): Inactive
- PPAR activity PPARδ: relative value (control = 100%) (hPPARδ (LBD); [2]): 89%

Compound: Cc1cc(C(=O)CCc2nc(-c3ccc(Cl)cc3O)oc2C(C)C)ccc1CCC(=O)O [Example 12, 3-[4-[3-[2-(4-Chloro-2-hydroxyphenyl)-5-isopropyl-4-oxazolyl]propionyl]-2-methylphenyl]propionic acid]
- PPAR activity PPARα: relative value (control = 100%) (hPPARα (LBD); 10^−7 M of the test compound): Inactive
- PPAR activity PPARγ: relative value (control = 100%) (hPPARγ (LBD); 10^−7 M of the test compound): Inactive
- PPAR activity PPARδ: relative value (control = 100%) (hPPARδ (LBD); [2]): 93%
- melting point: 141 to 144 °C

Compound: Cc1cc(C(=O)CCc2nc(-c3ccccc3O)oc2C(C)C)ccc1CCC(=O)O [Example 13, 3-[4-[3-[5-Isopropyl-2-(2-hydroxyphenyl)-4-oxazolyl]propionyl]-2-methylphenyl]propionic acid]
- PPAR activity PPARα: relative value (control = 100%) (hPPARα (LBD); 10^−6 M of the test compound): Inactive
- PPAR activity PPARγ: relative value (control = 100%) (hPPARγ (LBD); 10^−6 M of the test compound): Inactive
- PPAR activity PPARδ: relative value (control = 100%) (hPPARδ (LBD); 10^−6 M of the test compound, control GW-501516 10^−7 M = 100%, CV-1 cells): 62%

From patent US8404726B2, “Activating agent for peroxisome proliferator activated receptor δ” (Nippon Chemiphar Co. Ltd., priority 2006, dated 2013)
